Source: patent US11533912B2, “Use of cinnamate compounds in the control of fungal diseases of crops” (Institute of Plant Protection, Gansu Academy of …, priority 2019, dated 2022)
Read-outs that look alike come from different tables or passages of the source.

What was measured:
zucchini powdery mildew = assay: Field efficiency test on zucchini powdery mildew; assay type: in vivo; conditions: 0.50 mg/mL
Sclerotinia sclerotiorum = assay: Ex vivo mycelial growth, growth rate method; assay type: cell-based; conditions: 1 mg/mL
F. verticillioide = assay: Ex vivo mycelial growth, growth rate method; assay type: cell-based; conditions: 1 mg/mL
Valsa mali = assay: Ex vivo mycelial growth, growth rate method; assay type: cell-based; conditions: 1 mg/mL
[1] = tested on: Gaeumannomyces graminis var. graminis and G. graminis var. tritici; assay: Ex vivo mycelial growth, growth rate method; assay type: cell-based; conditions: 1 mg/mL
Mycosphaerlla melonis = assay: Ex vivo mycelial growth, growth rate method; assay type: cell-based; conditions: 1 mg/mL
Colletotrichum capsici = assay: Ex vivo mycelial growth, growth rate method; assay type: cell-based; conditions: 1 mg/mL
[2] = tested on: damping-off (P. aphanidermatum, P capsici); assay: In-vivo control of tomato damping-off in a greenhouse (sick soil); conditions: 0.80 mg/mL, 200 mL liquor per pot
Description: (§1) (2) In-Vivo Determination Method • Sick soil of damping-off (P. aphanidermatum, P capsici) was collected from the fields of tomatoes, eggplants and peppers in solar greenhouse, and mixed evenly in equal proportion. Tomatoes (Variety: Song Tian Fen Yang Yang, 100 grains), eggplants (Variety: Lanza No. 2 F1 long eggplant, 100 grains), pepper (Longjiao 2 F1, 100 grains) were seeded quantitatively with the sick soil in pots (diameter: 15 cm) in a greenhouse, additionally with sterile vermiculite as the control (each 100 grains for determining the germination rate). […] The computational formula is as below: Mortality of Seedlings (%)=[number of survival seedlings in the seeded grains−number of seeded grains×(100%−germination rate)]/number of seeded grains×100; Control Effect (%)=(mortality of control seedlings−mortality of treated seedlings)/mortality of control seedlings×100.

Exserohilum turcicum = assay: Ex vivo mycelial growth, growth rate method; assay type: cell-based; conditions: 1 mg/mL
[3] = tested on: damping-off (P. aphanidermatum, P capsici); assay: In-vivo control of pepper damping-off in a greenhouse (sick soil); conditions: 0.80 mg/mL, 200 mL liquor per pot
Description: as §1

[4] = tested on: Erysiphe cucurbitacearum or Sphaerotheca cucurbitae; assay: In-vivo control of zucchini powdery mildew in a greenhouse
Description: (2) In-Vivo Determination Method • Zucchini (Variety: Wuwei Xianglin extra-early 1st generation) were cultured in pots in a greenhouse, and inoculated with Erysiphe cucurbitacearum or Sphaerotheca cucurbitae at the stage of 3 to 4 leaves. […] Both sides of the leaves were sprayed evenly with a small hand-held sprayer so that the leaves were wetted by the liquor without loss. Applications were conducted every 7 days consecutively for 4 times. 10 days after the fourth application, the number of disease leaves at each grade of powdery mildew was investigated for the whole plant following the grading standard of 9 grades, to calculate the disease index and the control effect. The computational formula is as below: Disease index=[(Number of disease leaves at each grade×Corresponding grade value)/(Total number of investigated leaves×9)]×100; Control effect=(Disease index of the clear water control−Treated disease index)/Disease index of the clear water control×100.

Botrytis cinerea = assay: Ex vivo mycelial growth, growth rate method; assay type: cell-based; conditions: 1 mg/mL
[5] = tested on: Blumeria graminis f. sp. trilici; assay: In-vivo control of wheat powdery mildew in a greenhouse; parameters: species or system Blumeria graminis f. sp. trilici on winter wheat
Phytophthora capsici = assay: Ex vivo mycelial growth, growth rate method; assay type: cell-based
E. cichoracearum = assay: Field efficiency test on cucumber powdery mildew; conditions: 0.50 mg/mL (active ingredients)
Description: The first application was started on Jun. 15, 2018, and E. cichoracearum was inoculated on June 17th (the diseased leaves were harvested from the solar greenhouse near the military airfield at Xiaguanying town, Yuzhong County, moisturized in the greenhouse for 2 days, then shredded, and filtered over a gauze, the filtrate was sprayed onto both sides of the cucumber leaves with the cone nozzle of an electric sprayer for inoculation). The second, third and fourth applications were conducted on June 23rd, July 2nd, and July 9th respectively, the water consumptions of which were adjusted promptly according to the amount of water desired for spraying evenly onto both sides of the control leaves. 10 days after the fourth application, the number of disease leaves at each grade of powdery mildew was investigated following the grading standard of 9 grades, to calculate the disease index and the control effect.

F. oxysporum f. sp. lini = assay: Ex vivo mycelial growth, growth rate method; assay type: cell-based; conditions: 1 mg/mL
Pythium aphanidermatum = assay: Ex vivo mycelial growth, growth rate method; assay type: cell-based; conditions: 1 mg/mL
C. gossypii = assay: Ex vivo mycelial growth, growth rate method; assay type: cell-based; conditions: 1 mg/mL
Thanatephorus cucumeris = assay: Ex vivo mycelial growth, growth rate method; assay type: cell-based; conditions: 1 mg/mL
Fusarium graminearum = assay: microbe, parasite or virus in culture; assay type: cell-based
[6] = tested on: Botryosphaeriana berengeriana; assay: Ex vivo mycelial growth, growth rate method (line 'Botryosphaeriana berengeriana', r23); assay type: cell-based; conditions: Botryosphaeriana berengeriana (first line), 1 mg/mL
Rhizoctonia solani = assay: Ex vivo mycelial growth, growth rate method; assay type: cell-based; conditions: 1 mg/mL
[7] = tested on: F. oxysporum f. sp. vasinfectum; assay: Ex vivo mycelial growth, growth rate method; assay type: cell-based; conditions: 1 mg/mL
Pyricularia grisea = assay: microbe, parasite or virus in culture; assay type: cell-based
plant pathogenic fungi = assay: organism not typed; assay type: cell-based; conditions: read-out: inhibition rate on mycelial growth, range over 9 fungi
E. polygoni = assay: In-vivo control of marrow bean powdery mildew in a greenhouse
Description: (2) In-Vivo Determination Method • Marrow bean (Variety: Thailand Jiadouwang) were cultured in pots in a greenhouse, and inoculated with E. polygoni at the stage of 4 leaves. […] Both sides of the leaves were sprayed evenly with a small hand-held sprayer so that the leaves were wetted by the liquor without loss. Applications were conducted every 7 days consecutively for 4 times. 10 days after the fourth application, the number of disease leaves at each grade of powdery mildew was investigated for the whole plant following the grading standard of 9 grades, to calculate the disease index and the control effect.

Phytophthora infestans [8] = assay type: cell-based; conditions: Phytophthora infestans (second line), 1 mg/mL
Phytophthora infestans [9] = assay type: cell-based; conditions: Phytophthora infestans (first line), 1 mg/mL
Coniella diplodiella = assay: Ex vivo mycelial growth, growth rate method; assay type: cell-based; conditions: 1 mg/mL
[10] = tested on: Botryosphaeria berengeriana; assay: Ex vivo mycelial growth, growth rate method (line 'Botryosphaeria berengeriana', r34); assay type: cell-based; conditions: Botryosphaeria berengeriana (second line), 1 mg/mL
F. graminearum = assay: microbe, parasite or virus in culture; assay type: cell-based
zucchini = conditions: in vivo
Excerpt: The first application was started on August 26th, at the early onset of powdery mildew (the average disease index is 10.07). The instrument for application was Agrolex HD 400 Model hand operating knapsack sprayer, which employed a cone nozzle. Each agent was formulated into the desired concentrations according to the usage amount of the control clear water. Both sides of the leaves were sprayed evenly so that the leaves were wetted by the liquor without loss. […] Thereafter, applications were conducted every 7 days consecutively for 4 times. 10 days after the last application, the number of disease leaves at each grade of powdery mildew was investigated for the whole plant following the grading standard of 9 grades, to calculate the disease index and the control effect.

cucumber = assay: Crop safety (phytotoxicity) in the cucumber field test; conditions: at the test doses (triazole control agents: 1500 fold liquid)
[11] = mycelial growth, Phytophthora capsici, 1 mg/mL
[12] = Fusarium oxysporum, mycelial growth
[13] = Fusarium graminearum, read-out: Inhibition Rate
[14] = F. graminearum (second line), 1 mg/mL

Question: For `CCOC(=O)/C=C/c1ccc(OC)c(F)c1` [ethyl 3-(3′-fluoro-4′-methoxyphenyl) acrylate], which “Control Effect” value (zucchini powdery mildew) is on record?
Answer: 85.82%

Question: And the “Average Diameter of the Colony” value (Sclerotinia sclerotiorum)?
Answer: 2.58 cm

Question: What about the inhibition at 1000 µg/mL (Sclerotinia sclerotiorum; mycelial growth) of the same compound?
Answer: 70%

Question: What about the “Average Diameter of the Colony” value (F. verticillioide) of the same compound?
Answer: 2.34 cm

Question: And the inhibition at 1000 µg/mL (F. verticillioide; mycelial growth)?
Answer: 30.8%

Question: And the “Average Diameter of the Colony” value (Valsa mali)?
Answer: 0.85 cm

Question: What about the inhibition at 1000 µg/mL (Valsa mali; Cytospora mali, mycelial growth) of the same compound?
Answer: 89.2%

Question: What about the “Average Diameter of the Colony” value [1] of the same compound?
Answer: 2.29 cm

Question: And the inhibition at 1000 µg/mL ([1]; mycelial growth)?
Answer: 40%

Question: And the “Average Diameter of the Colony” value (Mycosphaerlla melonis)?
Answer: 0.37 cm

Question: What about the inhibition at 1000 µg/mL (Mycosphaerlla melonis; mycelial growth) of the same compound?
Answer: 95.7%

Question: What about the “Average Diameter of the Colony” value (Colletotrichum capsici) of the same compound?
Answer: 0.11 cm

Question: And the inhibition at 1000 µg/mL (Colletotrichum capsici; Colletotrichum truncatum, mycelial growth)?
Answer: 98.4%

Question: What about the “control effect on tomato damping-off” value [2] of the same compound?
Answer: 51.02%

Question: What about the “Average Diameter of the Colony” value (Exserohilum turcicum) of the same compound?
Answer: 0.10 cm

Question: What about the inhibition at 1000 µg/mL (Exserohilum turcicum; mycelial growth) of the same compound?
Answer: 98.4%

Question: What about the “control effect on pepper damping-off” value [3] of the same compound?
Answer: 56.47%

Question: What about the “Control Effect” value ([4]; 0.20 mg/mL) of the same compound?
Answer: 52.71%

Question: What about the “Control Effect” value ([4]; 0.333 mg/mL) of the same compound?
Answer: 95.60%

Question: And the “Control Effect” value ([4]; 0.50 mg/mL)?
Answer: 97.11%

Question: And the “Average Diameter of the Colony” value (Botrytis cinerea)?
Answer: 1.35 cm

Question: What about the inhibition at 1000 µg/mL (Botrytis cinerea; mycelial growth) of the same compound?
Answer: 82%

Question: And the “Control Effect” value ([5]; 0.143 mg/mL)?
Answer: 64.75%

Question: What about the “Control Effect” value ([5]; 0.20 mg/mL) of the same compound?
Answer: 67.60%

Question: What about the “Average Diameter of the Colony” value (Phytophthora capsici; Phytophthora capsici, 1 mg/mL) of the same compound?
Answer: 1.26 cm

Question: What about the inhibition at 1000 µg/mL (Phytophthora capsici; [11]) of the same compound?
Answer: 76.2%

Question: What about the “antifungal activity on Phytophthora capsici compared with hymexazol” value (Phytophthora capsici; supplementary determination results) of the same compound?
Answer: superior to that of the control agent, hymexazol

Question: And the “control effect on cucumber powdery mildew” value (E. cichoracearum)?
Answer: 78.42%

Question: What about the “Average Diameter of the Colony” value (F. oxysporum f. sp. lini) of the same compound?
Answer: 7.20 cm

Question: What about the inhibition at 1000 µg/mL (F. oxysporum f. sp. lini; [12]) of the same compound?
Answer: 20%

Question: And the “Average Diameter of the Colony” value (Pythium aphanidermatum)?
Answer: 2.60 cm

Question: And the inhibition at 1000 µg/mL (Pythium aphanidermatum; mycelial growth)?
Answer: 61.2%

Question: What about the “Average Diameter of the Colony” value (C. gossypii) of the same compound?
Answer: 0.42 cm

Question: And the inhibition at 1000 µg/mL (C. gossypii; Colletotrichum gossypii, mycelial growth)?
Answer: 92.2%

Question: What about the “Average Diameter of the Colony” value (Thanatephorus cucumeris) of the same compound?
Answer: 2.05 cm

Question: What about the inhibition at 1000 µg/mL (Thanatephorus cucumeris; mycelial growth) of the same compound?
Answer: 76.2%

Question: What about the “Average Diameter of the Colony” value (Fusarium graminearum; Fusarium graminearum (first line), 1 mg/mL) of the same compound?
Answer: 3.26 cm

Question: And the inhibition at 1000 µg/mL (Fusarium graminearum; [13])?
Answer: 39.1%

Question: And the “Average Diameter of the Colony” value [6]?
Answer: 1.19 cm

Question: What about the inhibition at 1000 µg/mL ([6]; mycelial growth) of the same compound?
Answer: 79.1%

Question: What about the “Average Diameter of the Colony” value (Rhizoctonia solani) of the same compound?
Answer: 0.00 cm

Question: And the inhibition at 1000 µg/mL (Rhizoctonia solani; mycelial growth)?
Answer: 100%

Question: What about the “Average Diameter of the Colony” value [7] of the same compound?
Answer: 4.45 cm

Question: And the inhibition at 1000 µg/mL [7, 12]?
Answer: 38.5%

Question: What about the “Average Diameter of the Colony” value (Pyricularia grisea; 1 mg/mL) of the same compound?
Answer: 7.70 cm

Question: And the inhibition at 1000 µg/mL (Pyricularia grisea; read-out: Inhibition Rate)?
Answer: 14.4%

Question: What about the inhibition at 1000 µg/mL (plant pathogenic fungi) of the same compound?
Answer: 82 to 100%

Question: What about the “Control Effect” value (E. polygoni; 0.10 mg/mL) of the same compound?
Answer: 77.26%

Question: What about the “Control Effect” value (E. polygoni; 0.143 mg/mL) of the same compound?
Answer: 91.16%

Question: What about the “Control Effect” value (E. polygoni; 0.20 mg/mL) of the same compound?
Answer: 94.51%

Question: What about the “Average Diameter of the Colony” value (Phytophthora infestans [8]) of the same compound?
Answer: 0.00 cm

Question: And the “Average Diameter of the Colony” value (Phytophthora infestans [9])?
Answer: 1.40 cm

Question: And the “Average Diameter of the Colony” value (Coniella diplodiella)?
Answer: 0.00 cm

Question: What about the inhibition at 1000 µg/mL (Coniella diplodiella; mycelial growth) of the same compound?
Answer: 100%

Question: What about the “Average Diameter of the Colony” value [10] of the same compound?
Answer: 1.72 cm

Question: And the inhibition at 1000 µg/mL ([10]; mycelial growth)?
Answer: 74.7%

Question: And the “Average Diameter of the Colony” value (F. graminearum; [14])?
Answer: 2.77 cm

Question: What about the inhibition at 1000 µg/mL (F. graminearum; [13]) of the same compound?
Answer: 67.8%

Question: With `COC(=O)C=Cc1ccc(OC)c(OC)c1` [Control Compound A, methyl 3,4-dimethoxy cinnamate, reference compound] as the compound, how does the “Average Diameter of the Colony” value (Sclerotinia sclerotiorum) read?
Answer: 0.00 cm

Question: What about the “Inhibition Rate” value (Sclerotinia sclerotiorum; mycelial growth) of the same compound?
Answer: 100%

Question: What about the “Average Diameter of the Colony” value (Valsa mali) of the same compound?
Answer: 0.00 cm

Question: What about the “Inhibition Rate” value (Valsa mali; mycelial growth) of the same compound?
Answer: 100%

Question: And the “Average Diameter of the Colony” value (Mycosphaerlla melonis)?
Answer: 0.67 cm

Question: What about the “Inhibition Rate” value (Mycosphaerlla melonis; mycelial growth) of the same compound?
Answer: 91.52%

Question: What about the “Average Diameter of the Colony” value (Exserohilum turcicum) of the same compound?
Answer: 1.37 cm

Question: And the “Inhibition Rate” value (Exserohilum turcicum; mycelial growth)?
Answer: 82.66%

Question: And the safety for zucchini (zucchini)?
Answer: safe for zucchini and cucumber

Question: And the “Average Diameter of the Colony” value (Botrytis cinerea)?
Answer: 2.27 cm

Question: And the “Inhibition Rate” value (Botrytis cinerea; mycelial growth)?
Answer: 71.27%

Question: And the “Average Diameter of the Colony” value (Phytophthora capsici; Phytophthora capsici, 1 mg/mL)?
Answer: 1.97 cm

Question: And the “Inhibition Rate” value (Phytophthora capsici; [11])?
Answer: 75.06%

Question: And the “Average Diameter of the Colony” value (C. gossypii)?
Answer: 3.83 cm

Question: What about the “Inhibition Rate” value (C. gossypii; mycelial growth) of the same compound?
Answer: 51.52%

Question: What about the “phytotoxicity / safety for cucumber” value (cucumber) of the same compound?
Answer: safe for zucchini and cucumber

Question: And the “Average Diameter of the Colony” value (Rhizoctonia solani)?
Answer: 0.67 cm

Question: And the “Inhibition Rate” value (Rhizoctonia solani; mycelial growth)?
Answer: 91.52%

Question: What about the “Average Diameter of the Colony” value [7] of the same compound?
Answer: 2.43 cm

Question: What about the “Inhibition Rate” value ([7]; mycelial growth) of the same compound?
Answer: 69.24%

Question: What about the “Average Diameter of the Colony” value (Pyricularia grisea; 1 mg/mL) of the same compound?
Answer: 3.83 cm

Question: And the “Inhibition Rate” value (Pyricularia grisea; mycelial growth, 1 mg/mL)?
Answer: 51.52%

Question: What about the “Average Diameter of the Colony” value (Phytophthora infestans [8]) of the same compound?
Answer: 0.27 cm

Question: What about the “Inhibition Rate” value (Phytophthora infestans [8]; mycelial growth) of the same compound?
Answer: 96.58%

Question: And the “Average Diameter of the Colony” value (Phytophthora infestans [9])?
Answer: 2.77 cm

Question: What about the “Inhibition Rate” value (Phytophthora infestans [9]; mycelial growth) of the same compound?
Answer: 64.94%

Question: What about the “Average Diameter of the Colony” value (F. graminearum; [14]) of the same compound?
Answer: 4.90 cm

Question: What about the “Inhibition Rate” value (F. graminearum; mycelial growth, F. graminearum (second line), 1 mg/mL) of the same compound?
Answer: 37.98%
